Data taken from PubChem BioAssay (NCI).
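1) Cells in 96-well plates. 2) Compound, 48 h, 5 concentrations. 3) Linear interpolation between surrounding doses. 4) Unreached endpoint = highest concentration. TGI: total growth inhibition.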

Columns and labels:
Experiment in all cases: inhibition of tumour cell growth, NCI panel, 48 h
[1] = test system: NCI/ADR-RES ovarian
[2] = test system: NCI-H522 lung
[3] = test system: UACC-62 melanoma
[4] = test system: MDA-N
[5] = test system: UACC-257 melanoma
[6] = test system: OVCAR-4 ovarian
[7] = test system: SF-539 CNS
[8] = test system: HCC-2998 colon
[9] = test system: KM12 colon
[10] = test system: SF-268 CNS
[11] = test system: SK-MEL-28 melanoma
[12] = test system: T-47D breast
[13] = test system: MCF7 breast
[14] = test system: HL-60(TB) leukemia
[15] = test system: EKVX NSCLC
[16] = test system: HCT-15 colon

SMILES | TGI [1] | TGI [2] | TGI [3] | TGI [4] | TGI [5] | TGI [6] | TGI [7] | TGI [8] | TGI [9] | TGI [10] | TGI [11] | TGI [12] | TGI [13] | TGI [14] | TGI [15] | TGI [16]
CC1=NN(C(=O)CC(=O)Nc2ccc(C)cc2)C(=O)C1N=Nc1ccc(S(=O)(=O)c2ccc(N=NC3C(=O)N(C(=O)CC(=O)Nc4ccc(C)cc4)N=C3C)cc2)cc1 (configuration not stated) | > 100 µM | > 100 µM | > 100 µM | > 100 µM | > 100 µM | > 100 µM | > 100 µM | > 100 µM | > 100 µM | > 100 µM | > 100 µM | > 100 µM | > 100 µM | > 100 µM | > 100 µM | > 100 µM
C=CCN1C(=O)/C(=C/c2ccc(C)cc2)NC1=S | > 100 µM | > 100 µM | > 100 µM | > 100 µM | > 100 µM | > 100 µM | > 100 µM | > 100 µM | > 100 µM | > 100 µM | > 100 µM | > 100 µM | > 100 µM | 48.9 µM | 97.1 µM | > 100 µM
CCOc1cc2c(cc1O)CC[C@@H]1[C@@H]2CC[C@]2(C)C(N)CC[C@@H]12 (some centres not stated) | 8.98 µM | 11.9 µM | 16.8 µM | 3.6 µM | 16.3 µM | 58.7 µM | 9.25 µM | 5.44 µM | 8.03 µM | 23.8 µM | 23.6 µM | 25.3 µM | 28.1 µM | > 25.1 µM | 20.9 µM | 13.8 µM
Nc1nc2n[nH]nc2c(=O)[nH]1 | > 100 µM | 40.9 µM | 2.62 µM | 15.4 µM | 56.2 µM | > 100 µM | 1.96 µM | > 100 µM | > 100 µM | > 100 µM | 9.4 µM | 10.5 µM | > 100 µM | 16.5 µM | > 100 µM | > 100 µM
COc1ccc(C2=NN(C(N)=S)C(c3ccccc3)C2)cc1 (configuration not stated) | > 100 µM | 84.1 µM | > 100 µM | > 100 µM | 99.1 µM | > 100 µM | > 100 µM | > 100 µM | > 100 µM | > 100 µM | > 100 µM | > 100 µM | 69.6 µM | 52.9 µM | > 100 µM | > 100 µM
CN(C)CCCNc1c(C#N)[n+]([O-])c2cc(Cl)ccc2[n+]1[O-] | > 57.3 µM | 14.1 µM | 17.4 µM | > 59.9 µM | > 50 µM | 14.2 µM | 47.4 µM | 18.7 µM | 26.9 µM | > 64.4 µM | > 100 µM | 40.7 µM | > 52.7 µM | 30.3 µM | 22.5 µM | 18.6 µM
CC1=C(C)C1[N+](=O)[O-] | > 100 µM | > 100 µM | > 100 µM | > 100 µM | > 100 µM | > 100 µM | > 100 µM | > 100 µM | > 100 µM | > 100 µM | > 100 µM | > 100 µM | > 100 µM | > 100 µM | > 100 µM | > 100 µM
COc1cc(/C=C2\C(=O)N(c3ccccc3Cl)C(c3ccccc3)S2(=O)=O)cc(OC)c1OC (configuration not stated) | > 100 µM | 46.5 µM | > 100 µM | 42.5 µM | > 100 µM | > 100 µM | 38.3 µM | > 100 µM | 83.5 µM | > 100 µM | > 100 µM | > 100 µM | > 100 µM | > 100 µM | > 100 µM | > 100 µM
Cc1ccc(C(=O)Nc2ccc(CP(=O)(O)O)cc2CP(=O)(O)O)cc1NC(=O)c1cccc(NC(=O)Nc2cccc(C(=O)Nc3cc(C(=O)Nc4ccc(CP(=O)(O)O)cc4CP(=O)(O)O)ccc3C)c2)c1 | > 100 µM | > 100 µM | > 100 µM | > 100 µM | > 100 µM | > 100 µM | > 100 µM | > 100 µM | > 100 µM | > 100 µM | > 100 µM | > 100 µM | > 100 µM | > 100 µM | > 100 µM | > 100 µM
CC(C)(C)OC(=O)NC(CCC(=O)OCc1ccccc1)C(=O)NCCCO (configuration not stated) | > 100 µM | > 100 µM | > 100 µM | > 100 µM | > 100 µM | > 100 µM | > 100 µM | > 100 µM | > 100 µM | > 100 µM | > 100 µM | > 100 µM | > 100 µM | > 100 µM | > 100 µM | > 100 µM
CC(C)=c1sc(=C(C)C)c2c1=NC(C)(C)N=2 | > 100 µM | > 100 µM | > 100 µM | > 100 µM | > 100 µM | > 100 µM | > 100 µM | > 100 µM | > 100 µM | > 100 µM | > 100 µM | > 100 µM | > 100 µM | > 100 µM | > 100 µM | > 100 µM
CC(C)(C)OC(=O)N1CCC2(C)CC(=O)CC=C12 (configuration not stated) | > 100 µM | > 100 µM | > 100 µM | > 100 µM | > 100 µM | > 100 µM | > 100 µM | > 100 µM | > 100 µM | > 100 µM | > 100 µM | > 100 µM | > 100 µM | > 100 µM | > 100 µM | > 100 µM
